The source of these data is patent EP0556789A2, “Substituted biphenyl derivatives, therapeutic agents containing them and process for their preparation” (Dr. Karl Thomae GmbH, priority 1992, dated 1993).

In the assay the target is T1, Angiotensin II-Rezeptor (Rattus norvegicus, UniProt P25095).
T1 construct: Das Gewebe (Rattenlunge) wird in Tris-Puffer; from tissue; host or cells: rat lung (membrane pellet of the homogenate)
T1 sequence (P25095 1-359): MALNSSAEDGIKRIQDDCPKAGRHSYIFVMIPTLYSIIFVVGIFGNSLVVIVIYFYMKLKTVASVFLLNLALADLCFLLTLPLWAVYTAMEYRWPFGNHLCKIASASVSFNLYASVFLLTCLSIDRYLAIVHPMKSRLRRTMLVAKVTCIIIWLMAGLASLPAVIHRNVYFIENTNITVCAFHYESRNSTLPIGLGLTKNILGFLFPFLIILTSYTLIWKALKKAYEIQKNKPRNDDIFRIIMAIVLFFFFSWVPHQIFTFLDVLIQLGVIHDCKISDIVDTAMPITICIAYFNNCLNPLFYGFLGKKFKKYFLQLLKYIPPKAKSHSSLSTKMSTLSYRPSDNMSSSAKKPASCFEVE
Nature of the assay: Angiotensin II receptor binding ([125I]-angiotensin II displacement, rat lung homogenate). Further details: species or system Ratte. The settings on record: Rattenlunge homogenate, 50 pM [125I]-Angiotensin II, 60 min at 37 °C. Here is the method:
Methodenbeschreibung Angiotensin II-Rezeptorbindung
Das Gewebe (Rattenlunge) wird in Tris-Puffer (50 mMol Tris, 150 mMol NaCI, 5 mMol EDTA, pH 7.40) homogenisiert und zweimal je 20 Min. bei 20.000 x g zentrifugiert. Das endgültige Pellet wird in Inkubations-Puffer (50 mMol Tris, 5 mMol MgCI2, 0,2 % BSA, pH 7.40) 1:75, bezogen auf das Feuchtgewicht des Gewebes, resuspendiert. Je 0,1 ml Homogenat wird für 60 Min. bei 37 ° C mit 50 pM [125']-Angiotensin II (NEN, Dreieich, FRG) und steigenden Konzentrationen der Testsubstanz in einem Gesamtvolumen von 0,25 ml inkubiert. Die Inkubation wird durch rasche Filtration durch Glasfiber-Filtermatten beendet. Die Filter werden je 4 ml eiskaltem Puffer (25 mMol Tris, 2.5 mMol MgCI2, 0,1 % BSA, pH 7,40) gewaschen. Die gebundene Radioaktivität wird in einem Gamma-Counter ermittelt. Aus der Dosis-Wirkungskurve wird der entsprechende 1C50-Wert ermittelt.

For orientation: IC50 means the concentration that gives 50% inhibition. High values mean lower potency, low ones higher potency.

Regarding `CCCc1nc2c(C)cc(-c3nc4ccccc4n3C)cc2n1Cc1ccc(-c2ccccc2)c(CCC(=O)O)c1` [Substanz C, 2-n-Propyl-4-methyl-6-(1-methyl-benzimidazol-2-yl)-1-[3-(2-hydroxycarbonyl-ethyl)-4-phenyl-benzyl]-benzimidazol], the IC50 is 0.018 µM.

For the compound `CCCc1nc2c(C)cccc2n1Cc1ccc(-c2ccccc2)c(CCC(=O)O)c1` [Substanz B, 2-n-Propyl-4-methyl-1-[3-(2-hydroxycarbonyl-ethyl)-4-phenyl-benzyl]-benzimidazol], the IC50 was 0.27 µM.

On to `CCc1nc2c(C)cc(C)nc2n1Cc1ccc(-c2ccccc2)c(Cc2nnn[nH]2)c1` [Substanz D, 2-Ethyl-5,7-dimethyl-3-[3-(tetrazol-5-yl-methyl)-4-phenyl-benzyl]-imidazo[4,5-b]pyridin], for which the IC50 came to 0.073 µM.

`CCCc1nc2c(C)cccc2n1Cc1ccc(-c2ccccc2)c(Cc2nnn[nH]2)c1` [Substanz A, 2-n-Propyl-4-methyl-1-[3-(tetrazol-5-yl-methyl)-4-phenyl-benzyl]-benzimidazol] returned an IC50 of 0.37 µM.

Compound `CCCc1nc2c(C)cc(-c3cn(C(C)C)cn3)cc2n1Cc1ccc(-c2ccccc2)c(CCc2nnn[nH]2)c1` [Substanz E, 2-n-Propyl-4-methyl-6-(1-isopropyl-imidazol-4-yl)-1-[3-(2-tetrazol-5-yl-ethyl)-4-phenyl-benzyl]-benzimidazol] had an IC50 of 0.0069 µM.
